# Measured values as given in patent US12036289B2, “Gadolinium bearing PCTA-based contrast agents” (BRACCO IMAGING S.P.A., priority 2018, dated 2024).
# Where two headings read alike, the source gives them in different places. Marks after values point to notes of the source that are not given here.
# Key:
# [1] = 1.0M HCl (pH 0), 25° C.; literature value; cited from earlier work
# [2] = 1.0M HCl, 25° C.; literature value; cited from earlier work
# [3] = Relaxometric properties: longitudinal relaxivity r1; assay type: physicochemical
# Description: The relaxometric properties of the PCTA-based complex compounds according to the invention have been measured at different magnetic field strengths, i.e. 0.47 and 1.41 T, at 37° C. and in different media (water and human plasma) and compared with relaxivity values measured, at the same conditions, for Gd-Complex having an analogous coordination cage.
# The longitudinal water proton relaxation rate (R1=1/T1) was measured at 0.47 T with a Minispec MQ-20 spectrometer (Bruker Biospin, Germany) operating at a proton Larmor frequency of 20 MHz; MR experiments at 1.41 T were performed using a Minispec MQ-60 spectrometer (Bruker Biospin, Germany) operating at a proton Larmor frequency of 60 MHz.
# All test articles were used as supplied and diluted in the selected medium (water or human plasma) by weighting the required amount of paramagnetic chelated complex to get a 5 or 10 mM starting solution.
# Five different concentration samples (0.1, 0.25, 0.5, 0.75 and 1 mM) for each medium have been prepared by further dilution of the starting 5 or 10 mM solution.
# Relaxivity measurements were performed at 0.47 T and 1.41 T at a preset temperature sample of 37° C., kept constant by means of a thermostatic bath connected to the sample holder of the spectrometer. The five sample solutions have been preliminary pre-heated at 37° C. in an external thermostatic bath and then left 10 minutes inside the internal bath to assure the stabilization of the temperature. Longitudinal relaxation time T1 was measured by means of a standard inversion recovery sequence, where the inversion time (TI) was varied from 10 ms to at least 5 times T1 in 15 steps. Statistical analysis (mono-exponential fitting for T1 measurement, linear fitting for the evaluation of longitudinal relaxivity) was performed by Mathematica® (Wolfram, USA). Errors on the estimated parameters were evaluated by the fitting procedure.
# [4] = pH 0
# Description: In order to investigate the kinetic inertness of the racemic mixture of the Gd(PCTA-tris-glutaric acid) and, particularly, of the four enantiomer pairs thereof separated by HPLC, we investigated their dissociation reactions taking place under acidic conditions. A large excess of H^+ ([HCl]=1.0 M) was in particular exploited in order to guarantee the pseudo-first order kinetic conditions.
# A solution of Gd(PCTA-tris-glutaric acid) (isomeric mixture) in 1 M HCl was prepared and was analysed over the time as explained in Example 7.
# In particular, the area value for each of the A, B, C, and D peaks was assessed over the time by HPLC.
# The decrease of the integral area values of signals of A, B, C, and D was thus assessed and plotted as a function of the time.
# kX pseudo-first-order rate constants (where kX is =kA, kB, kC and kD respectively), characterizing the dissociation rate of the different enantiomer pairs of the Gd(PCTA-tris-glutaric acid) complex and half-lives (t1/2=ln2/kX) were then calculated by fitting the area —time data pairs, as explained in details in Example 7. The average half-life value for the isomeric mixture of Gd(PCTA-tris-glutaric acid) was also obtained, by considering the percentage composition of the mixture. […]
# [5] = cited from earlier work
# [6] = cited from earlier work; remark: listed apart in the source
# [7] = Acid catalyzed dissociation kinetics of Gadopiclenol (isomeric mixture) and of enantiomers pair C coupled with isoserinol in 1.0 M HCl, followed by HPLC; assay type: physicochemical; conditions: 1.0M HCl, 25° C.; fitting of area-time data
# Description: The average half-life of the obtained conjugated compounds and of Gadopiclenol (isomeric mixture) were calculated considering the decrease of the HPLC total area over time as described in detail in Example 8. For amide derivatives obtained by reaction of RRR/SSS Gd(PCTA-tris-glutaric acid) with i) R-isoserinol; ii)S-isoserinol; and iii) racemic isoserinol the kX pseudo-first-order rate constants and half-lives (t1/2=ln 2/kX) were also calculated by fitting the area—time data pairs as carried out for RRR/SSS Gd(PCTA-tris-glutaric acid) in Example 7.
# The HPLC measurements were performed with Thermo Finnigan LCQ DECA XPPlus system according to the analytical Procedure 2.
# HPLC chromatogram of Gadopiclenol collected as isomeric mixture from Example 2 is characterized by the presence of 4 major peaks (identified for convenience as A′, B′, C′ and D′) having the same MS and UV-Vis spectra. However, there is only one signal in the HPLC chromatogram of the complex compounds obtained by coupling the enantiomers pair C with isoserinol, whether it is R, S isoserinol or racemic-isoserinol (FIG. 6). Since, as observed, the chirality of the isoserinol pendant has no influence on the retention time of coupled diastereoisomers, the presence of 4 signals in the HPLC chromatograms of Gadopiclenol (isomeric mixture) could be interpreted by the presence of 4 enantiomer pairs formed with the stereocenters of the of the glutaric acid residue: 1) RRR-SSS (Signal D′), 2) RSR-SRS, 3) RRS-SSR and 4) RSS-SRR.
# The progress of the reactions was checked by HPLC over time, plotting the area values of the peaks of the complex as a function of time, as above discussed in Example 7 for Gd(PCTA-tris-glutaric acid) isomers.
# As expected, the integral values of A′, B′, C′, and D′ decrease over time, whereas the peak of the free ligand increases. […] The half-life of complexes obtained by coupling the enantiomers pair C with R, S and racemic-isoserinol was also calculated from the half of the area values in the HPLC chromatograms.
compound,measurement,setting,value
"O=C([O-])CN1CCN(CC(=O)[O-])CCN(CC(=O)O)CCN(CC(=O)[O-])CC1.[Gd+3] [Dotarem, Gd-DOTA]",k1 (s^−1) rate constant of acid catalyzed dissociation,[1],8e-06 s⁻¹
same,kx (s^−1) rate constant of acid catalyzed dissociation,[2],8e-06 s⁻¹
RRR/SSS Gd(PCTA-tris-glutaric acid),"r1 (mM^−1s^−1) H2O, 0.5T, 37° C.",[3],9.3 ± 0.1 mM⁻¹ s⁻¹
same,"r1 (mM^−1s^−1) H2O, 0.5T, 37° C.",[3]; listed as enantiomers pair C,9.3 ± 0.1 mM⁻¹ s⁻¹
same,t1/2 (hour) dissociation half-life (t1/2 = ln2/kx),[4],120 ± 3 h
"O=C([O-])CN1CCN(CC(=O)[O-])Cc2cccc(n2)CN(CC(=O)[O-])CC1.[Eu+3] [Eu(PCTA), europium complex of the 3,6,9,15-tetraazabicyclo[9.3.1]pentadeca-1(15),11,13-triene-3,6,9,-triacetic acid]",k1 (s^−1) rate constant of acid catalyzed dissociation,[1],0.000508 s⁻¹
same,kx (s^−1) rate constant of acid catalyzed dissociation,[2],0.000508 s⁻¹
"gadolinium chelate of 2,2′,2″-(3,6,9-triaza-1(2,6)-pyridinacyclodecaphane-3,6,9-triyl)tris(5-((2,3-dihydroxypropyl)amino)-5-oxopentanoic acid) [Gadopiclenol (isomeric mixture)]","r1 (mM^−1s^−1) H2O, 0.5T, 37° C.","[5]; H2O, 0.5T, 37° C., value reported in EP 1931673",11* mM^−1s^−1
same,"r1 (mM^−1s^−1) HSA, 1.5T, 37° C.","[5]; HSA, 1.5T, 37° C., value reported in Invest. Radiol. 2015, 50, 835-842",12.8 ± 1.3** mM^−1s^−1
same,relaxivity,"[5]; in human serum (37° C., 1.41 T), Investigative Radiology 2019, Vol 54, (8), 475-484",12.8 mM⁻¹ s⁻¹
same,relaxivity,"[5]; in water, at 0.5 T, 37° C., reported in EP1931673",11 mM^−1s^−1Gd^−1
same,stability (log K^term),"[6]; Investigative Radiology 2019, Vol 54, (8), 475-484",18.7
same,thermodynamic equilibrium constant (log K^term),[6]; reported in EP 2988756,14.9
"O=C(CCC(C(=O)[O-])N1CCN(C(CCC(=O)NCC(O)CO)C(=O)[O-])Cc2cccc(n2)CN(C(CCC(=O)NCC(O)CO)C(=O)[O-])CC1)NCC(O)CO.[Gd+3] (single isomer, unassigned) [Enantiomers pair C + racemic-isoserinol]",kx (s^−1) pseudo-first-order rate constant of acid catalyzed dissociation,[7],(4.5 ± 0.4) × 10^−6 s^−1
same,"r1 (mM^−1s^−1) H2O, 0.5T, 37° C.",[3],13.0 ± 0.1 mM⁻¹ s⁻¹
same,"r1 (mM^−1s^−1) HSA, 1.5T, 37° C.",[3],14.0 ± 0.2 mM⁻¹ s⁻¹
"O=C(CCC(C(=O)[O-])N1CCN(C(CCC(=O)NCC(O)CO)C(=O)[O-])Cc2cccc(n2)CN(C(CCC(=O)NCC(O)CO)C(=O)[O-])CC1)NCC(O)CO.[Gd+3] (single isomer, unassigned) [Enantiomers pair C + S-isoserinol]",kx (s^−1) pseudo-first-order rate constant of acid catalyzed dissociation,[7],(4.6 ± 0.3) × 10^−6 s^−1
same,"r1 (mM^−1s^−1) H2O, 0.5T, 37° C.",[3],12.9 ± 0.2 mM⁻¹ s⁻¹
same,"r1 (mM^−1s^−1) HSA, 1.5T, 37° C.",[3],13.9 ± 0.2 mM⁻¹ s⁻¹
"O=C(CCC(C(=O)[O-])N1CCN(C(CCC(=O)NCC(O)CO)C(=O)[O-])Cc2cccc(n2)CN(C(CCC(=O)NCC(O)CO)C(=O)[O-])CC1)NCC(O)CO.[Gd+3] (single isomer, unassigned) [Enantiomers pair C + R-isoserinol]",kx (s^−1) pseudo-first-order rate constant of acid catalyzed dissociation,[7],(4.9 ± 0.4) × 10^−6 s^−1
same,"r1 (mM^−1s^−1) H2O, 0.5T, 37° C.",[3],12.9 ± 0.1 mM⁻¹ s⁻¹
same,"r1 (mM^−1s^−1) HSA, 1.5T, 37° C.",[3],14.0 ± 0.3 mM⁻¹ s⁻¹
